We go through 61 compounds from a melting point compilation (Tetko et al.; mined from patent text by program, amines drawn as free bases though some values may be those of a salt).

The term melting point denotes the temperature, or range, at which the solid turns liquid. `O=c1[nH]c2cc(Cl)c(Cl)c([N+](=O)[O-])c2[nH]c1=O`: the melting point was in the range of 347 to 348 °C.

`CC(C)(C)c1cc(OCCCCCCc2nnn[nH]2)cc(C(C)(C)C)c1` gave a melting point of 113 to 115 °C.

With `Cc1oc(-c2ccccc2)nc1CCOc1ccc(CC(F)(C(=O)NS(C)(=O)=O)c2ccccc2)cc1` (stereo unspecified), the melting point was in the range of 118 to 120 °C.

`CNc1cc(C)ccc1C(C)=O` displayed a melting point of 47 °C.

`CCOC(=O)C=Cc1ccc(CCNS(=O)(=O)CCc2ccc(Cl)cc2)cc1` yielded a melting point of 91 to 92 °C.

In the case of `Cc1cc2c(-c3ccc(Br)cc3)c(CC(=O)Nc3ccc(F)cc3C(F)(F)F)c(=O)oc2cc1Cl`, the melting point lay in the range of 262 to 264 °C.

Take `COCOc1cc(Br)ccc1-c1cc(-c2cccc([N+](=O)[O-])c2)c(C#N)c(NC(=O)c2cccs2)n1`: the melting point lay in the range of 166 to 167 °C.

In turn, `CC(COc1ccccc1)NC(=Nc1cccnc1)NC#N` (stereo unspecified) yielded a melting point of 130 to 133 °C.

`COC(=O)c1ccccc1S(=O)(=O)NC(=O)Nc1nc(COc2ccccc2)cc(OC)n1` had a melting point of 178 to 180 °C.

Consider `O=C(O)c1cc(C(=O)O)c(C(O)=NCCO)cc1C(O)=NCCO`, for which the melting point was 280 to 281 °C.

In the case of `Cc1nc(N2CCN(Cc3cccnc3)C2=O)sc1C(=O)NCc1ccccc1`, the melting point was in the range of 110 to 113 °C.

For the compound `CC(C(C=Cc1ccc(Cl)cc1)OCc1ccc(Cl)cc1)n1cncn1` (stereo unspecified), the melting point came to 91 °C.

For `O=C(NC(Cc1ccc(OCc2ccccc2)cc1)C(=O)O)c1cn2ccc(-c3ccc(Cl)cc3)cc2n1` (stereo unspecified), the melting point is 248 to 249 °C.

For `CCS(=O)(=O)Nc1cc(-c2ncnc(C(C)C)c2Cl)c(F)cc1C#N`, the melting point was in the range of 160 to 162 °C.

For `Cc1nc2c3c(c(C(=O)N4CCC(O)C4)cc2n1C)CCC(c1ccccc1)O3` (stereo unspecified), the melting point lay in the range of 322 to 324 °C.

Consider `CC1(C)C=Cc2cc(C(=O)NCCc3ccc(OCc4ccccc4)cc3)ccc2O1`, for which the melting point lay in the range of 133 to 135 °C.

In the case of `C#Cc1cc(Nc2ncnc3cnc(F)cc23)ccc1Cl`, the melting point was in the range of 218 to 222 °C.

`CCN1CC(=O)N(C)c2cc(Nc3ncc(Cl)c(Nc4ccc(OC)cc4-n4cccn4)n3)c(OC)cc2C1`: the melting point lay in the range of 105 to 107 °C.

`CNC(=O)c1cc2c(Oc3ccc(-n4cncn4)cc3)cncc2s1` displayed a melting point of 214 to 215 °C.

Regarding `O=C1N(Cc2ncccc2F)c2ccccc2C12COc1cc3c(cc12)OCCO3` (stereo unspecified), the melting point lay within 125 to 126 °C.

In turn, `CCOc1cc2c(C)c(CCN3CCN(c4ccccc4OC)CC3)c(=O)oc2cc1OC` had a melting point of 143 to 145 °C.

Consider `O=C1Cc2cc(Cl)cc(C(=O)c3ccccc3)c2N1`, for which the melting point fell in the range of 186 to 187 °C.

Take `OC1CSC(Oc2cnc(Cl)c(F)c2)C(O)C1O` (stereo unspecified): the melting point lay within 198 to 200 °C.

Compound `Oc1ccc(Cl)cc1C(c1cc(Cl)ccc1O)C(F)(F)F` gave a melting point of 144 °C.

Consider `COc1cc(OC2OC(CO)C(O)C(O)C2O)ccc1C=Cc1cc(C=Cc2ccc3cc[nH]c3c2)n[nH]1` (stereo unspecified), for which the melting point lay in the range of 194 to 199 °C.

The compound `CC(=O)OCC(C(OC(C)=O)c1cccc(F)c1)[N+](=O)[O-]` (stereo unspecified) gave a melting point of 94 °C.

Compound `COc1ccccc1CNCc1c(-c2ccccc2)c2cc(C)c(C)cc2c(=O)n1C` showed a melting point of 159 to 160 °C.

For `O=C(C=Cc1cnc2ccccc2c1)NCCCSc1ccncc1`, the melting point was in the range of 154 to 155 °C.

As for `Cc1ccc(-c2ccc3c(c2)C=C(C(=O)Nc2ccc(CN(C)C4CCOCC4)cc2)CC(C)O3)cc1` (stereo unspecified), the melting point was 170 to 171 °C.

On to `O=C(Nc1cccnc1S(=O)(=O)c1ccccc1)N[C@@H](Cc1ccc(NC(=O)c2c(Cl)cccc2Cl)cc1)C(=O)O`, for which the melting point was determined as 181 °C.

In the case of `Cc1cc(C)n(-c2cncc(Nc3ccc(Cl)cc3)n2)n1`, the melting point is 157 to 159 °C.

Take `COc1c(CN2C(=O)c3ccccc3C2=O)n(C)c(=O)c2ccc(Cl)cc12`: the melting point lay in the range of 248 to 249 °C.

`COc1cc2c(c(Cl)c1Cl)C(=O)C(C)C2` (stereo unspecified) had a melting point of 129 °C.

On to `COc1ccc(CC2NC(=O)NC2=O)cc1CCc1ccccc1` (stereo unspecified), for which the melting point fell in the range of 147 to 149 °C.

As to `CCCCCCCCCCCCCCCCCCOCC(CO)OC(=O)N1CCOCC1` (stereo unspecified), the melting point was 48 to 49 °C.

As for `CSC1=NCCN1CC(C)O` (stereo unspecified), the melting point lay in the range of 114 to 116 °C.

The compound `CC(C)Oc1ccc(CCCOc2cc(CCC(=O)O)n(-c3ccccc3)n2)c(OCc2ccc(Cl)cc2Cl)c1` came in with a melting point of 139 to 141 °C.

The compound `CNC(=O)N(C)C(=O)Nc1nc(C(Cl)(Cl)Cl)ns1` yielded a melting point of 94 °C.

Compound `O=Cc1cccc(OCC(O)CN2C(=O)c3ccccc3C2=O)c1` (stereo unspecified) registered a melting point of 122 to 126 °C.

As to `OC(Cn1ccnc1)c1cccc2ccccc12` (stereo unspecified), the melting point lay within 112 to 115 °C.

`COc1ccccc1N1CCN(CCNc2ccccn2)CC1` registered a melting point of 89 to 94 °C.

In the case of `COc1ccc(-c2nc(Sc3ccccc3)n(Cc3ccccc3)c2-c2ccc(OC)cc2)cc1`, the melting point fell in the range of 113 to 115 °C.

As to `Cc1c(NCCNCC(O)COc2ccccc2)n(C)c(=O)n(C)c1=O` (stereo unspecified), the melting point lay in the range of 81 to 82 °C.

`CNC(=O)CC1CN=C(c2cc3cc(Oc4ccc(S(C)(=O)=O)cn4)cc(OC)c3[nH]2)S1` (stereo unspecified) registered a melting point of 207 to 209 °C.

`CCCOc1ccc(C(=O)CC(=O)C(C)(C)C)cc1OC`: the melting point fell in the range of 55.5 to 56.7 °C.

The compound `CCN(CC)C(=O)C1CCC2C3CC=C4N(C)C(=O)CCC4(C)C3CCC12C` (stereo unspecified) displayed a melting point of 115 to 118 °C.

`CCOC(=O)c1cnc2c(cnn2CC)c1O`: the melting point was in the range of 85 to 87 °C.

As for `Cc1noc(-c2cccc(NC(=O)Oc3ccc([N+](=O)[O-])cc3)c2)n1`, the melting point lay within 217 to 220 °C.

Compound `Cn1nc(C(F)(F)F)n(-c2ccc(O)cc2)c1=S` displayed a melting point of 150 to 152 °C.

With `CCCCOc1nc(N)c2[nH]c(=O)n(CCNc3cccc(CC(=O)OC)c3)c2n1`, the melting point was in the range of 222 to 223 °C.

`COc1ccc(-c2cc3ccccc3[nH]2)cc1O` yielded a melting point of 217 °C.

`CC(C(=O)c1ccc(Cl)cc1)N1CCC(O)(Cc2ccccc2)CC1` (stereo unspecified) returned a melting point of 136 °C.

As to `COc1cc(NCCCCCCN2CCN(c3ccccn3)CC2)c2nccc(C)c2c1`, the melting point fell in the range of 78 to 81 °C.

Take `Cc1cc2c(Cl)nnc(Cl)c2n1Cc1ccccc1`: the melting point fell in the range of 122 to 124 °C.

`COc1ccc(C(SC)c2ccc(OC)cc2)cc1`: the melting point was 62 to 63 °C.

As for `c1ccc(-c2cc3nnc(-c4cnccn4)n3nc2OCc2nc[nH]n2)cc1`, the melting point worked out at 255 °C.

`CC12CCC3C(CC=C4CC(O)CCC43C)C1CC(Br)C2=O` (stereo unspecified) showed a melting point of 167 to 168 °C.

Compound `O=C(OCCCI)C(=C1NCCCS1)[N+](=O)[O-]` showed a melting point of 58 to 60 °C.

Compound `CCOC(=O)C(C)Oc1ccc(-c2nc(-c3ccc(C)cc3C)nc(-c3ccc(C)cc3C)n2)c(O)c1` (stereo unspecified) showed a melting point of 120 to 122 °C.

With `CC(=O)NC1(C)Cc2ccccc2C(C)c2ccccc2C1` (stereo unspecified), the melting point lay in the range of 185 to 224 °C.

On to `CC(C)(C)c1cc(C(c2ccccc2)c2cc(C(C)(C)C)cc(C(C)(C)C)c2O)c(O)c(C(C)(C)C)c1`, for which the melting point lay within 165 to 167 °C.
